Values of other authors as cited in patent publication US20030056236A1, “Model” (priority 2001, published 2003).

System: 5-HIAA levels
Details: after treatment; for elevate 5-HIAA levels: rat medial prefrontal cortex; for effect on 5-HIAA levels in the striatum: rat striatum

Compound	elevate 5-HIAA levels	effect on 5-HIAA levels in the striatum
Cc1nc2n(c(=O)c1CCN1CCC(c3noc4cc(F)ccc34)CC1)CCCC2 [Risperidone]	elevate	no effect
CCNC(=O)N1CCN(CCCC(c2ccc(F)cc2)c2ccc(F)cc2)CC1 [amperozide]	elevate	no effect
Cc1nc2sccn2c(=O)c1CCN1CCC(=C(c2ccc(F)cc2)c2ccc(F)cc2)CC1 [ritanserin]	to a lesser extent	no effect
